These results are taken from patent publication US8124775B2, “Chemical compound and its use” (Bayer Pharma Aktiengesellschaft, priority 2004, dated 2012).

The target of assay [1] is T1, CETP (Homo sapiens, UniProt P11597).
T1 sequence (P11597 18-493): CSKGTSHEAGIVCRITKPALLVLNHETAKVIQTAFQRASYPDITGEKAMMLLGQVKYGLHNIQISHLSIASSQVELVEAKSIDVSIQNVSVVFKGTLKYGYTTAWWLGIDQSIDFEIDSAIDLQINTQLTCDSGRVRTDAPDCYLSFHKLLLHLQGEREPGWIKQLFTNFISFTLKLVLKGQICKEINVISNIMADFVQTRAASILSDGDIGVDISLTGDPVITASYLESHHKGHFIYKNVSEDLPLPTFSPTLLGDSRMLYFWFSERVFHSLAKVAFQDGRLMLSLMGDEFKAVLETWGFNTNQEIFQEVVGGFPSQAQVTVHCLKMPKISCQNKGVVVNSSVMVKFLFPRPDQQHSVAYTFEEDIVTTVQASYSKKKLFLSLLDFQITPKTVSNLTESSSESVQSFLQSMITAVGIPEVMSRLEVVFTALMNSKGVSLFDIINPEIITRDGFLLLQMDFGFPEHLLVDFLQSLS
In words: CETP fluorescence test with enriched CETP. The arrangement: tissue Sigma P9523; host or cells: human plasma. It is filed as biochemical. Particulars: section (b), Example 1 = formula (Ib); enriched CETP from human plasma, 37° C., 4 hours. The procedure: CETP is obtained in partially purified form from human plasma by differential centrifugation and column chromatography and used for the test. To this end, human plasma is adjusted to a density of 1.21 g per ml using NaBr and centrifuged at 4° C. at 50 000 rpm for 18 h. The bottom fraction (d>1.21 g/ml) is applied to a Sephadex® Phenyl-Sepharose 4B (Pharmacia) column, washed with 0.15 M NaCl/0.001 M tris-HCl pH 7.4 and then eluted with distilled water. The CETP-active fractions are pooled, dialysed against 50 mM sodium acetate pH 4.5 and applied to a CM-Sepharose® column (Pharmacia). The mixture is then eluted using a linear gradient (0-1 M NaCl). The pooled CETP fractions are dialysed against 10 mM tris/HCl pH 7.4 and then further purified by chromatography on a Mono Q® column (Pharmacia).
Measurement of the CETP-catalysed transfer of a fluorescent cholesterol ester between liposomes [modified according to the procedure of Bisgaier et al., J. Lipid Res. 34, 1625 (1993)]: […]
The change in the fluorescence at 485/535 nm is a measure of the CE transfer; the inhibition of the transfer in comparison to the control batch without substance is determined. […]

The target in assay [2] is T1, CETP. The assay can be described thus: CETP fluorescence test with human plasma. The arrangement: tissue Sigma P9523; host or cells: human plasma. The class given is biochemical. Particulars: section (b), Example 1 = formula (Ib), 37° C., 24 h. The procedure: For the production of the donor liposomes, 1 mg of cholesteryl 4,4-difluoro-5,7-dimethyl-4-bora-3a,4a-diaza-s-indacene-3-dodecanoate (cholesteryl BODIPY® FL C12, Molecular Probes) is dissolved in 600 μl of dioxane with 5.35 mg of triolein and 6.67 mg of phosphatidylcholine with gentle warming in an ultrasonic bath and this solution is added very slowly with ultrasonication to 63 ml of 50 mM tris/HCl, 150 mM NaCl, 2 mM EDTA buffer pH 7.3 at room temperature. The suspension is then ultrasonicated under an N2 atmosphere for 30 minutes in the Branson ultrasonic bath at about 50 watts, the temperature being kept at about 20° C.
6 μl (12% v/v) of donor liposomes and 1 μl (2% v/v) of a solution of the substance to be investigated in DMSO are added to 42 μl (86% v/v) of human plasma (Sigma P9523), and the mixture is incubated at 37° C. for 24 h.
The change in the fluorescence at 510/520 nm (gap width 2.5 nm) is a measure of the CE transfer; the inhibition of the transfer in comparison to the control batch without substance is determined. […]

Assay [3] addresses T1, CETP. The assay can be described thus: Ex vivo activity on transgenic hCETP mice (serum CETP activity). The arrangement: from tissue; host or cells: serum of transgenic hCETP mice (Dinchuk et al.). The class given is in vivo. The settings on record: mouse, po. The procedure:
10 μl of buffer and 2 μl of serum are added to 80 μl of test mix, and the mixture is incubated at 37° C. for 4 h.
The change in the fluorescence at 485/535 nm is a measure for the CE transfer; the inhibition of the transfer is comparison to the control batch without substance is determined.
To test for CETP-inhibitory activity, the substances are administered orally using a stomach tube to transgenic hCETP mice bred in-house [Dinchuk et al. BBA 1295-301 (1995)]. To this end, male animals are randomly assigned to groups having an equal number of animals, as a rule n=4, one day before the start of the experiment. Before administration of the substance, blood is taken from each mouse by puncture of the retro-orbital venous plexus for the determination of its basal CETP activity in the serum (T1). The test substance is then administered to the animals using the stomach tube. At specific times after administration of the test substance, blood is taken from the animals by puncture a second time (T2), in general 16 or 24 h after substance administration, but if appropriate this can also be carried out at another time.
In order to be able to assess the inhibitory activity of a substance, for each time, i.e. 16 or 24 hours, a corresponding control group is employed whose animals only receive the formulating agent without substance. In the control animals, the second blood sampling per animal is carried out as in the substance-treated animals in order to be able to determine the change in the CETP activity without inhibitor over the corresponding experimental time interval (16 or 24 h).
After termination of the clotting, the blood samples are centrifuged and the serum is removed by pipette. For the determination of the CETP activity, the cholesteryl ester transport over 4 h is determined. To this end, in general 2 μl of serum are employed in the test batch and the test is carried out as described under B-I.2.3.
The differences in the cholesteryl ester transport [pM CE/h (T2)−pM CE/h (T1)] are calculated for each animal and averaged in the groups. A substance which at one of the times reduces the cholesteryl ester transport by >20% is regarded as active.
The change in the fluorescence at 485/535 nm is a measure for the CE transfer; the inhibition of the transfer in comparison to the control batch without substance is determined.
To test for CETP-inhibitory activity, the substances are administered orally using a stomach tube to transgenic hCETP mice bred in-house [Dinchuk et al., BBA, 1295-1301 (1995)]. To this end, male animals are randomly assigned to groups having an equal number of animals, as a rule n=4, one day before the start of the experiment. […]

Assay [4] addresses T1, CETP. In words: CETP-SPA test. It is filed as biochemical. The arrangement: are added to 42 μl (86% v/v) of human plasma (Sigma P9523); tissue Sigma P9523; host or cells: human plasma. Particulars: section (b), Example 1 = formula (Ib); 37° C., 18 h.
Experimental: 50 ml of fresh human EDTA plasma is adjusted to a density of 1.12 using NaBr and centrifuged at 4° C. in a Ty 65 rotor at 50 000 rpm for 18 h. The upper phase is used for the obtainment of cold LDL. […]
For testing of the CETP activity, the transfer of ^3H-cholesterol ester from human HD lipoproteins to biotinylated LD lipoproteins is measured. The reaction is ended by addition of streptavidin-SPA® beads (Amersham) and the transferred radioactivity is determined directly in a liquid scintillation counter. […]

Read-outs that look alike come from different tables or passages of the source.

As for `CC(C)c1nc2c(c(C3CCCC3)c1[C@@H](F)c1ccc(C(F)(F)F)cc1)[C@@H](O)CC(C)(C)C2` [Example 1], the IC50 amounted to 25 nM at CETP [1] and 84 nM at CETP [2].

Turning to `CC1(C)Cc2nc(C3CCCC3)c([C@@H](F)c3ccc(C(F)(F)F)cc3)c(C3CCCCC3)c2[C@@H](O)C1` [Example 1], the inhibition at 3 mg/kg is 50% on CETP [3] (section (a), Example 1 = formula (Ia), 16 h after administration, read-out: % inhibition at 3 mg/kg, 16 h); 24% on CETP [3] (section (a), Example 1 = formula (Ia), 24 h after administration, read-out: % inhibition at 3 mg/kg, 24 h); 49% at CETP [3] (section (b), Example 1 = formula (Ib), 16 h after administration, read-out: % inhibition at 3 mg/kg, 16 h); 39% at CETP [3] (section (b), Example 1 = formula (Ib), 24 h after administration, read-out: % inhibition at 3 mg/kg, 24 h). Further, the IC50 on CETP [4] was 12 nM.
